Experimental data: patent US20260315434A1, “USE OF GUAIACOL SESQUITERPENE LACTONE DERIVATIVES” (NANJING UNIVERSITY OF CHINESE MEDICINE, priority 2023, published 2026)
Converted amounts (≈) assume the structure as drawn. Values belong to the molecule of their own block, whether it stands above or below them.

Columns and labels:
[1] = tested on: mouse ear atopic dermatitis; test: MC903-induced atopic dermatitis of the ear, ointment: ear thickness, dermatitis score, lesions; assay type: in vivo; conditions: for inhibition rate of ear thickness increase: final day
Protocol: (1) Preparation of Oil Phase: Weigh white petrolatum, light liquid paraffin, glyceryl monostearate, ethylparaben, and cetyl alcohol. Heat to 65° C. while stirring until dissolved. Slowly add the dissolved active pharmaceutical ingredient (API) while continuing to stir until uniformly mixed. Set aside.
(2) Aqueous Phase Preparation: Weigh purified water and Tween 80, heat to 70° C., stir to dissolve, and set aside;
(3) Emulsification: Slowly add the aqueous phase to the oil phase while maintaining 65° C., homogenize, and continue stirring for 30 min;
(4) Cooling: Stop heating, continue stirring, gradually reduce to room temperature, cool to form an ointment, and fill containers.
(§1) Dissolve these substances in a small amount of propylene glycol, then place the resulting solution into the aforementioned pre-cooled blank ointment base. Finally, add water to make the total mass up to 10 g, and grind the mixture thoroughly in a mortar.
(§2) Except for the Normal group, all other groups underwent AD modeling: 20 μL of MC903 solution (also known as calcipotriol, purchased from Shanghai Yuanye Biotechnology Co., Ltd., used for inducing atopic models) was applied to each mouse's ears once daily for 14 consecutive days to induce the atopic dermatitis model. […] Measure ear thickness changes every 2 days using an electronic caliper before modeling and after treatment initiation.
(§3) Skin Lesion Severity Score: Daily skin lesion severity was assessed in mice using the following criteria, primarily encompassing four symptoms: 1) erythema/hemorrhage; 2) dryness; 3) desquamation/erosion; 4) edema. Each symptom was scored from 0 to 3 based on lesion severity: no symptoms=0 points, mild=1 point, moderate=2 points, severe=3 points. […] Higher scores indicated more severe lesions, with a maximum score of 12. Statistical analysis was performed on the data.

[2] = tested on: inflammatory markers in the ears of AD mice; test: MC903-induced atopic dermatitis of the ear, ointment: mRNA of inflammatory markers; assay type: in vivo, mouse
Protocol: as §1, §2

[3] = tested on: dorsal atopic dermatitis; test: MC903-induced atopic dermatitis of the dorsum, ointment: skin thickness, dermatitis score, lesions; assay type: in vivo, mouse; conditions: for inhibition rate of dorsal skin thickness increase: final day
Protocol: as §1
Except for the Normal group, all other groups underwent AD modeling: 48 hours prior to the experiment, hair on the dorsal neck region was meticulously removed using clippers and depilatory cream. Following modeling initiation, 20 μL of MC903 solution was applied once daily to the dorsal neck region for 14 consecutive days to induce the AD model. […] Model and control group mice received daily application of blank ointment. Twenty-four hours after completing the 14-day modeling period, photographs of skin lesions were taken, and skin lesion and blood samples were collected.
as §3

[4] = tested on: T cells / MDSCs; test: Promotion of T cell proliferation in a co-culture model of MDSCs and T cells; assay type: cell-based, mouse; conditions: for activation at 1 µM: Mus musculus, T-cell, 12 h, read-out: T-cell proliferation rate (%), 1 μM, MDSCs treated 12 hours, co-culture of MDSCs and T cells, compared to the control group
Method in brief: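 Bone-marrow MDSCs, after compound treatment, were co-cultured 48 h at 1:1 with CFDA-SE-labelled (10 μM solution), activated splenic T cells. Proliferation of CD3+ T cells was read by flow cytometry.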

[5] = tested on: MDSCs; test: Inhibition of MDSC chemotaxis (Transwell, tumor-conditioned medium); assay type: cell-based, mouse; set-up: inhibition of MDSC chemotaxis compared to Arg: dose or concentration left out as unconfirmed
Protocol: Hepa1-6 mouse hepatocellular carcinoma cells were uniformly seeded into 6-well plates. After cells reached confluence, supernatant was aspirated, and 1-1.5 mL fresh medium was added to each well. Following 24 h culture, supernatant was collected, centrifuged at 1600 rpm for 5 min, aspirated, and filtered through a 0.22 μm membrane to obtain tumor-conditioned medium for subsequent use. […] Under sterile conditions, remove the tibia, cut both ends of the bone, and aspirate the bone marrow into a 1 mL syringe. Repeat flushing into a 15 mL centrifuge tube. Centrifuge at 1600 rpm for 5 min to collect bone marrow cells. Wash twice with 1×PBS. […] Count cells, adjust density to 1×10^6 cells/mL, and uniformly seed into 24-well plates at 300 μL per well. […] Centrifuge at 1600 rpm for 5 min, remove supernatant, resuspend cells in 300 μL fresh medium, and place into Transwell chambers. […] Co-culture for 24 h.

[6] = tested on: CCR2 mRNA; test: Inhibition of CCR2 mRNA level in MDSCs; assay type: cell-based; conditions: Mus musculus, 2 h, read-out: Suppression Rate (inhibition of CCR2 mRNA levels)
Protocol: Under sterile conditions, the tibia was removed, both ends of the bone were cut, and bone marrow was repeatedly flushed into a 15 mL centrifuge tube using a 1 mL syringe filled with culture medium. Centrifuge at 1600 rpm for 5 min to collect bone marrow cells. […] Count cells and adjust density to 1×10^6 cells/mL in complete medium. Seed cells uniformly into 6-well plates at 2 mL per well. […] After incubation, collect cells into centrifuge tubes, centrifuge at 1600 rpm for 5 min, wash once with 1×PBS, and add 500 μL RNA extraction reagent to each tube. After centrifugation to obtain the pellet, add 20 μL DEPC-treated water to each tube to dissolve the pellet. Determine RNA concentration and reverse transcribe to cDNA. Add the cDNA, primers, and […] to a 96-well plate. Centrifuge at 4000 rpm for 5 min, then place in a PCR instrument for detection.

[7] = Water solubility testing of compounds (HPLC); conditions: deionized water, water, Water-solubility, 37 °C
[8] = tested on: tumor cells; conditions: in vitro cell models, result in words; cited from earlier work
[9] = tested on: Hepa1-6 transplanted tumor; conditions: 30 mg/kg i.p., 14 consecutive days; cited from earlier work
[10] = tested on: HepG2 and Huh7 HCC cell transplanted tumor; conditions: HepG2 and Huh7 transplanted tumor models; cited from earlier work
[11] = Mus musculus, read-out: Suppression Rate (MDSC chemotaxis)

solubility [7]: 1140 µg/mL (≈ 4.35 mM)
Compound: C=C1C(=O)O[C@@H]2[C@@H]3[C@]4(CC[C@@]3(C)O)C[C@]4(C)CC[C@@H]12 [Compound 1]
Dermatitis Score, ear ([1]; 0.01% ointment, 7 days, max score 12): 3.50 ± 0.22 | AD-like skin lesions on the ears ([1]; 0.01%, 0.1%, 1% ointment): significantly alleviated | inhibition rate of ear thickness increase ([1]; 0.01% ointment): 71% | inhibition rate of ear thickness increase ([1]; 0.1% ointment): 71% | inhibition rate of ear thickness increase ([1]; 1% ointment): 80% | I113 mRNA expression, ear ([2]; 0.01% ointment): 3.30 ± 0.47 | I131 mRNA expression, ear ([2]; 0.1% ointment): 1.64 ± 0.25 | I131 mRNA expression, ear ([2]; 1% ointment): 1.10 ± 0.19 | AD-like skin lesions on the backs ([3]; 0.01%, 0.1%, 1% ointment): significantly alleviated | Dermatitis Score, back ([3]; 0.1% ointment, 7 days, max score 12): 2.50 ± 0.22 | inhibition rate of dorsal skin thickness increase ([3]; 0.01% ointment): 66% | inhibition rate of dorsal skin thickness increase ([3]; 0.1% ointment): 72% | inhibition rate of dorsal skin thickness increase ([3]; 1% ointment): 83% | T cell proliferation in MDSC-T cell co-culture ([4]; 1 μM, result in words): significantly enhanced T-cell proliferation | activation at 1 µM [4]: > 40% | inhibition at 1 µM [5, 11]: 42.3% | inhibition at 10 µM [5, 11]: 83.3% | inhibition of MDSC chemotaxis compared to Arg ([5]; result in words): superior inhibition rates | inhibition at 1 µM [6]: 35.2% | inhibition at 10 µM [6]: 76.5%

Compound: C=C1C(=O)O[C@H]2[C@H]1CCC(C)=C1CC[C@@](C)(O)[C@@H]12 [MCL, Micheliolide]
activation at 1 µM [4]: 20 to 40% | IC50, tumor cell growth inhibition [8]: in the micromolar range | tumor weight inhibition rate [9]: 50% | effective dose, intraperitoneal [10]: 25 mg/kg
